Laboratory results: patent publication US12528774B2, “Thiosemicarbazone compounds and uses thereof” (The Regents of the University of California, priority 2019, dated 2026)

Tests used:
[1] = biological target: dihydroorotate dehydrogenase (DHODH) (Homo sapiens, UniProt Q02127); test: Recombinant DHODH activity assay; type: biochemical; settings: HCT-13 100 nM, 1 μM; Cu(II) 20 μM
Protocol: FIG. 5A: rescue of HCT-13 (25 nM)-induced cell death by Uridine (rU) (200 μM), Pyruvate (1 mM), or both following 48h of treatment. FIG. 5B: measurement of DHODH activity using recombinant DHODH assay following treatment with indicated perturbations for 2 min. DHODH inhibitor used: NITD-982-1 μM; HCT-13-100 nM, 1 μM, (100 nM data shown); Cu(II)—20 μM. (mean±SD, n=2, Student t-test, * P<0.05).
DHODH activity: Recombinant protein was incubated in an aqueous solution (total volume, 1.0 mL) containing 500 μM DHO (Sigma, D1728), 200 mM K2CO3-HCl (pH 8.0), 0.2% triton x-100, and 100 μM coenzyme Q10 (Sigma, C9538) at 37° C. for 0, 15, 30, 45, or 60 min. An aliquot (100 μL) of the mixture of enzyme reaction mixture or cell/tissue lysate was mixed with 100 μL of 0, 0.5, or 1.0 μM orotic acid, 50 μL of H2O, 250 μL of 4.0 mM 4-TFMBAO (Sigma, 422231), 250 μL of 8.0 mM K3[Fe(CN)6] (Sigma, 244023), and 250 μL of 80 mM K2CO3 (Sigma, P5833) and then heated at 80° C. for 4.0 min. The reaction was stopped by cooling in an ice-water bath and the absorbance was measured with a spectrofluorometer (FP-6300 Jasco, Tokyo, Japan): excitation and emission wavelengths were 340 nm and 460 nm, respectively.

MIAPACA2 cells = test: ROS measurements (CM-H2DCFDA, MitoSOX); type: cell-based, human; settings: 24 h
Protocol: FIGS. 2A-2I. FIG. 2A: representative immunoblots of MIAPACA2 PDAC cells treated as indicated for 24h. FIGS. 2B-2C: reactive oxygen species (ROS) measurement using CM-H2DCFDA staining after HCT13 (25 nM)+Cu(II) (20 μM) treatment for 24h; mean fluorescence intensity (MFI); mean±SD, n=2, Student t-test, ***P<0.001. FIG. 2D-2E: mitochondrial ROS detection using MitoSOX staining in MIAPACA2 PDAC cells treated with HCT-13 (25 nM)+Cu(II) (20 μM) for 24h; mean±SD, n=2, Student t-test, ***P<0.001. FIG. 2F: oxygen consumption rate (OCR) of MIAPACA2 PDAC cells treated with HCT-13 (25 nM)+Cu(II) (20 μM). FIG. 2G: OCR of isolated mitochondria measured with or without HCT-13 (25 nM)+Cu(II) (20 μM). FIG. 2H: viability of 143 BTK parental (wild type, WT) and po cells after 48 h of treatment with the indicated HCT-13 concentrations+Cu(II) (20 μM) treatment, assessed with trypan blue staining; mean±SD, n=2, Student t-test, ***P<0.001. […]
ROS Measurements: Cellular ROS measurement was assayed with CM-H2DCFDA staining after treatment according to manufacturer's instructions (Reactive Oxygen Species (ROS) Detection Reagents, Invitrogen, #D399). […] The samples were analyzed using flow cytometry.
Mitochondrial ROS was measured using MitoSOX staining according to manufacturer's instructions (MitoSOX, Invitrogen, #M36008). […]
ROS Measurements. […] The samples were analyzed using flow cytometry. […]

Chain of dihydroorotate dehydrogenase (DHODH) (Q02127 whole entry, species assumed): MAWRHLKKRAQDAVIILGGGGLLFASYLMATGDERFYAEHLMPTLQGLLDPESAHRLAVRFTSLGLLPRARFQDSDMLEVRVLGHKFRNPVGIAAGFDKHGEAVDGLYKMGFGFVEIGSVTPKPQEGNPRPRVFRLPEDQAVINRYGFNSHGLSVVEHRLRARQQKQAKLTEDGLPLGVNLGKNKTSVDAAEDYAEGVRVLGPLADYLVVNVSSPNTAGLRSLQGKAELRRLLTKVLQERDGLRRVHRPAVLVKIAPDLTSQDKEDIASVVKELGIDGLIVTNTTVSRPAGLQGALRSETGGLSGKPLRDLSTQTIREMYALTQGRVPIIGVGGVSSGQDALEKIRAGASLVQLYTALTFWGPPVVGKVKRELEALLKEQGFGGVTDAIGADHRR

CN(C)C(=S)N/N=C/c1nccc2cc(F)ccc12 (mixture of isomers) [HCT13, (E)-2-((6-Fluoroisoquinolin-1-yl)methylene)-N,N-dimethylhydrazine-1-carbothioamide and (Z)-2-((6-Fluoroisoquinolin-1-yl)methylene)-N,N-dimethylhydrazine-1-carbothioamide]
affinity for DHODH [1]: did not demonstrate affinity | ROS generation (CM-H2DCFDA staining) (MIAPACA2 cells; HCT13 25 nM + Cu(II) 20 μM): induced ROS generation | mitochondrial ROS (MitoSOX) (MIAPACA2 cells; HCT-13 25 nM + Cu(II) 20 μM): also observed in the mitochondria
